Experiments:
[1] = target: T1, D(2) dopamine receptor (Homo sapiens, UniProt P14416); test: Displacement of [3H]N-methylspiperone from human dopamine D2 receptor at 50 uM by PDSP assay
[2] = target: D(1A) dopamine receptor (Homo sapiens, UniProt P21728); test: Displacement of [3H][…] from human dopamine D1 receptor by PDSP assay
[3] = organism: Homo sapiens; test: Selectivity ratio of Ki for human sigma1 receptor to human sigma2 receptor
[4] = target: T2, D(3) dopamine receptor (Homo sapiens, UniProt P35462); test: Displacement of [3H]N-methylspiperone from human dopamine D3 receptor by PDSP assay
[5] = target: T1, D(2) dopamine receptor; test: Displacement of [3H]N-methylspiperone from human dopamine D2 receptor by PDSP assay
[6] = Displacement of [3H]DTG from human sigma2 receptor by PDSP assay
[7] = organism: Homo sapiens; test: Selectivity ratio of Ki for human dopamine D3 receptor to human dopamine D1 receptor
[8] = target: Sigma non-opioid intracellular receptor 1 (Homo sapiens, UniProt Q99720); test: Displacement of [3H](+)-pentazocine from human sigma1 receptor by PDSP assay
[9] = Binding affinity to sigma2 receptor (unknown origin) by PDSP assay; design: species or system Homo sapiens
[10] = target: T2, D(3) dopamine receptor; test: Binding affinity to dopamine D3 receptor (unknown origin) by PDSP assay
[11] = organism: Homo sapiens; test: Selectivity ratio of Ki for human dopamine D2 receptor to human dopamine D3 receptor
[12] = organism: Homo sapiens; test: Selectivity ratio of Ki for human dopamine D2 receptor to human dopamine D1 receptor
[13] = system: MDA-MB-231; test: Cytotoxicity against human MDA-MB-231 cells assessed as cell viability after 24 hrs by Alamar blue assay; assay type: functional, cell-based; settings: MDA-MB-231, 24 h

T2 sequence (P35462 whole entry): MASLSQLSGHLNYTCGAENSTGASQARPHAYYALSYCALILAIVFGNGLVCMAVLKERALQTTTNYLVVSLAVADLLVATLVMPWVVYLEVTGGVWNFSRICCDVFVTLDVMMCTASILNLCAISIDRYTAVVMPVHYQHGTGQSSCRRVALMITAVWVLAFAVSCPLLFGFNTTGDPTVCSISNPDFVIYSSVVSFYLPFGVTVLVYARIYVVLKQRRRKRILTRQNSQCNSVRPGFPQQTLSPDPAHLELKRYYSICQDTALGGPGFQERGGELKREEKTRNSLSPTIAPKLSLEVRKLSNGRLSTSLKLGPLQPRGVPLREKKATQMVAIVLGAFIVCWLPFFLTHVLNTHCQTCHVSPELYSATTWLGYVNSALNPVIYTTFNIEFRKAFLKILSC
T1 sequence (P14416 whole entry): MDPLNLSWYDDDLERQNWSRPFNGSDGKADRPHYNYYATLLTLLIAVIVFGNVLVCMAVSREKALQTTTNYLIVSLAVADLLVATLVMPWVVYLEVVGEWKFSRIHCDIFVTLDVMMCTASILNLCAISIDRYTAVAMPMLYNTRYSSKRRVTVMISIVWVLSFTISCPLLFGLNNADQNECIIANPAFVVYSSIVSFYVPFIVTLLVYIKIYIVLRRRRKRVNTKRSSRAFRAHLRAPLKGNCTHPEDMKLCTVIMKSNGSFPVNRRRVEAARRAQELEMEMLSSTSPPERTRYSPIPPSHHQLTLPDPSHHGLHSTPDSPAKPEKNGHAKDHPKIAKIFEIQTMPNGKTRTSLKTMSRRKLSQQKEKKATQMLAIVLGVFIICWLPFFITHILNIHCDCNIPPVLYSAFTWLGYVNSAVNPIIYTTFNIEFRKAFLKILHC
Sequence of D(1A) dopamine receptor (P21728 whole entry): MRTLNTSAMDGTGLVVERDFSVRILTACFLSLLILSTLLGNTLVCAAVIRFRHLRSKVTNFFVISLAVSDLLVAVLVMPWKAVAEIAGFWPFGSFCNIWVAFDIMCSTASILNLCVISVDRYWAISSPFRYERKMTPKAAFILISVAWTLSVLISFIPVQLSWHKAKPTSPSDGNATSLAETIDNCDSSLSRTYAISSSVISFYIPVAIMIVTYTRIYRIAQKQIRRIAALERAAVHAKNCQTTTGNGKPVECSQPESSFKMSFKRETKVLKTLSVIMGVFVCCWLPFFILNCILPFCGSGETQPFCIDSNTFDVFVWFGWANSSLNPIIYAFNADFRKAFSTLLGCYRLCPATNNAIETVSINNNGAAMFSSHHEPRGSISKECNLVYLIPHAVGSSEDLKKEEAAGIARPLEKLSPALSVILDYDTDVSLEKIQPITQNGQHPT
Sequence of Sigma non-opioid intracellular receptor 1 (Q99720 whole entry): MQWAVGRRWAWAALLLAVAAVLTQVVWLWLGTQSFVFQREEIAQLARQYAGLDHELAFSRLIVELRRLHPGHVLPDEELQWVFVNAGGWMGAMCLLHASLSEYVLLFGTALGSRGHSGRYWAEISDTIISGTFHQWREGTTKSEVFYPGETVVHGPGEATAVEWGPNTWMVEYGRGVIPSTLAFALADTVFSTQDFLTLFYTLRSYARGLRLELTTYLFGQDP

Structure (SMILES): CCCCCCOc1ccc2c(c1OC)CN1CCc3cc(OC)c(O)cc3C1C2 (stereo unspecified)
- inhibition [1]: < 50%
- Ki [2]: 0.04 µM
- Ratio Ki [3]: 0.35
- Ki [4]: 0.22 µM
- Ki [5]: Not Active
- Ki [6]: 0.107 µM
- Ratio Ki [7]: 5.5
- Ki [8]: 0.037 µM

Structure (SMILES): COc1cc2c(cc1O)[C@@H]1Cc3ccc(O)c(OC)c3CN1CC2 [STEPHOLIDINE]
- Ki [9]: 0.054 µM
- Ki [10]: 0.03 µM

Structure (SMILES): CCCCOc1ccc2c(c1OC)CN1CCc3cc(OC)c(O)cc3C1C2 (stereo unspecified)
- Ki [4]: 0.065 µM
- Ki ([5]; read-out: Ki): 0.121 µM
- Ki [6]: 0.049 µM
- Ki [8]: 0.013 µM

Structure (SMILES): CCCCCOc1ccc2c(c1OC)CN1CCc3cc(OC)c(O)cc3C1C2 (stereo unspecified)
- Ratio Ki [11]: 2.8
- Ratio Ki [12]: 14.9
- Ki [2]: 0.019 µM
- Ratio Ki [3]: 1.22
- Ki [4]: 0.101 µM
- Ki ([5]; read-out: Ki): 0.283 µM
- Ki [6]: 0.097 µM
- Ratio Ki [7]: 5.3
- Ki [8]: 0.119 µM

Structure (SMILES): COc1cc2c(cc1O)C(C)N(Cc1cccc(O)c1OC)CC2 (stereo unspecified)
- Ki [2]: 0.833 µM
- Ki [4]: 1.37 µM
- Ki ([5]; read-out: Ki): 1.1 µM
- Ki [6]: 0.301 µM
- Ki [8]: 0.13 µM

Structure (SMILES): COc1cc2c(cc1O)C1Cc3ccc(OCC4CC4)c(OC)c3CN1CC2 (stereo unspecified)
- Ki [2]: 0.012 µM
- Ki [6]: 0.0024 µM
- Ki [8]: 0.012 µM

Structure (SMILES): COc1cc2c(cc1O)C1Cc3ccc(OC)c(OC)c3CN1CC2 (stereo unspecified)
- IC50 [13]: 178 µM
- Ki [4]: 0.037 µM
- Ki [6]: 0.001 µM

Structure (SMILES): COc1cc2c(cc1O)C1Cc3ccc(O)c(OC)c3CN1CC2 (racemic)
- Ratio Ki [11]: 1.1
- Ratio Ki [12]: 20.6
- Ki [2]: 0.0056 µM
- Ratio Ki [3]: 30
- Ki [4]: 0.101 µM
- Ki ([5]; read-out: Ki): 0.116 µM
- Ki [6]: 0.009 µM
- Ratio Ki [7]: 18
- Ki [8]: 0.269 µM

Structure (SMILES): COc1cc2c(cc1O)C1Cc3ccc(OCCCO)c(OC)c3CN1CC2 (stereo unspecified)
- Ratio Ki [11]: 1.9
- Ratio Ki [12]: 31.5
- Ki [2]: 0.0067 µM
- Ratio Ki [3]: 13.9
- Ki [4]: 0.11 µM
- Ki ([5]; read-out: Ki): 0.211 µM
- Ki [6]: 0.0038 µM
- Ratio Ki [7]: 16.4
- Ki [8]: 0.053 µM

Structure (SMILES): CCOc1ccc2c(c1OC)CN1CCc3cc(OC)c(O)cc3C1C2 (stereo unspecified)
- Ratio Ki [11]: 3.6
- Ratio Ki [12]: 12.8
- Ki [2]: 0.0124 µM
- Ratio Ki [3]: 95
- Ki [4]: 0.044 µM
- Ki ([5]; read-out: Ki): 0.159 µM
- Ki [6]: 0.0013 µM
- Ratio Ki [7]: 3.5
- Ki [8]: 0.124 µM

Structure (SMILES): CCN(CCc1ccc(O)c(OC)c1)Cc1cccc(O)c1OC
- Ki [2]: > 10 µM
- Ki [4]: 1.81 µM
- Ki ([5]; read-out: Ki): > 10 µM
- Ki [6]: 0.788 µM
- Ki [8]: 0.35 µM

Structure (SMILES): CCCOc1ccc2c(c1OC)CN1CCc3cc(OC)c(O)cc3C1C2 (stereo unspecified)
- Ki [2]: 0.0078 µM
- Ki [4]: 0.053 µM
- Ki ([5]; read-out: Ki): 0.099 µM
- Ki [6]: 0.0067 µM
- Ki [8]: 0.057 µM

Structure (SMILES): COc1cc(CCN(C)Cc2cccc(O)c2OC)ccc1O
- Ki [2]: 3.11 µM
- Ki [4]: 2.68 µM
- Ki ([5]; read-out: Ki): > 10 µM
- Ki [6]: 0.227 µM
- Ki [8]: 0.122 µM

Reference: ChEMBL document CHEMBL3779868, “Tetrahydroprotoberberine alkaloids with dopamine and σ receptor affinity” (Bioorg Med Chem, 2016)
